Consider 21 compounds from patent US8409550B2, “Method for treating skin with retinoids and retinoid boosters” (Unilever Home & Personal Care, USA, Division of Conopco, …, priority 2000, dated 2013).

One test deals with ARAT. The test is described as follows: Assay for ARAT activity, bovine RPE microsomes (to identify B1). The class given is biochemical. The settings on record: for % Inhibition ARAT (100 jm): compound 100 jm.
Test [1] deals with transglutaminase (TGase I). The test is described as follows: Transglutaminase (Tgase) ELISA assay in cultured keratinocytes with retinol and boosters. The class given is cell-based, human. The note with it: for TG as % C, Compd 3: Compound 3 alone; for TG as % C, Compd 3 / TG as % C Compd 2 / TG as % C Compd 1: concentration one log below IC20; for IC20: IC20 (80% of control); for Tgase levels (Mean): with 10^-7 M retinol. A general note: In an ELISA, binding on a coated surface is turned into a signal by an enzyme label.
Experimental: For this reason, a transalutaminase (Tgase) assay was utilised.
Thus TGase I is a useful marker of epidermal keratinocyte differentiation with high TGase I levels indicating a more differentiated state. An ELISA based TGase I assay, using a TGase I antibody, was used to assess the state of differentiation of the cultured keratinocytes in the examples that follow.
Keratinocytes (cultured as described above) were plated in 96 well plates at a density of 4,000-5,000 cells per well in 200 μl media. After incubation for two to three days, or until cells are ˜50% confluent, the media was changed to media containing test compounds (five replicates per test). The cells were cultured for a further 96 hours after which time the media was aspirated and the plates stored at −70° C. Plates were removed from the freezer, and the cells were washed twice with 200 μl of 1×PBS. The cells were incubated for one hour at room temperature (R/T) with TBS/5% BSA (wash buffer, bovine serum albumin). Next the TGase primary antibody was added: 50 μl of monoclonal anti-Tgase I Ab B.C. diluted 1:2000 in wash buffer. The primary antibody was incubated for 2 hours at 37° C. and then rinsed 6× with wash buffer. Cells were then incubated with 50 μl of secondary antibody (Fab fragment, peroxidase conjugated anti-mouse IgG obtaining from Amersham) diluted 1:4,000 in wash buffer for two hours at 37° C., then rinsed three times with wash buffer. Following the rinse with washing buffer, the cells were rinsed 3× with PBS. For colourimetric development, the cells were incubated with 100 μl substrate solution (4 mg o-phenylenediamine and 3.3 μl 30% H2O2 in 10 ml 0.1M citrate buffer pH 5.0) for exactly five minutes, R/T, in darkness (under aluminum foil). The reaction was stopped by the addition of 50 μl 4 N H2SO4. […] Out of the five replicates, four were treated with both antibodies, the fifth one was use as a Tgase background control. Tgase levels were determined and expressed as percentage control.
A suspension of keratinocytes was prepared at a concentration of 3000 cells/200 μl/well in KGM medium (Used 3×10^5 cells/12 ml media in each microtitre plate)
200 μl of the keratinocyte suspension was transferred into each of the inner 60 wells only.
Each plate was incubated at 37° C. and 5% CO2 for 3 days or until cells are ˜50% confluent.
Stock solutions of the samples were prepared in DMSO.
The samples were diluted to desired concentration with the final assay concentration of DMSO being 0.1%.

Where [2] appears, read: in the presence of 10^-7M retinol.
[3] abbreviates: compound tested individually in the presence of 10^-7 M retinol.

Values joined by “and” are separate entries in the source; they are usually repeats but may differ in a detail not shown here. Equal entries are not always repeated. Where two headings read alike, the source gives them in different places.

Experimental for ARAT: 2.1 Isolation of RPE Microsomes (Modified from (1))
50 frozen hemisected bovine eyecups, with the retina and aqueous humor removed were obtained from W. L. Lawson Co., Lincoln, Nebr., USA. The eyes were thawed overnight and the colored iridescent membrane was removed by peeling with forceps. Each eyecup was washed with 2× 0.5 mL cold buffer (0.1M PO4/1 mM DTT/0.25N sucrose, pH 7) by rubbing the darkly pigmented cells with an artist's brush or a rubber policeman. The cell suspension was added to the iridescent membranes and the suspension was stirred for several minutes in a beaker with a Teflon stir bar.
The cell homogenate was centrifuged for 30 min. at 20,000 g (Sorvaal model RC-5B centrifuge with an SS34 rotor in 2.5×10 cm tubes at 14,000 RPM). The resulting supernatant was subjected to further centrifugation for 60 min. at 150,000 g (Beckman model L80 Ultracentrifuge with an SW50.1 rotor in 13×51 mm tubes at 40,000 RPM). The resulting pellets were dispersed into ˜5 mL 0.1M PO4/5 mM DTT, pH 7 buffer using a Heat Systems Ultrasonics, Inc. model W185D Sonifier Cell Disrupter, and the resulting microsomal dispersion was aliquoted into small tubes and stored at −70° C. The protein concentrations of the microsomes were determined using the BioRad Dye binding assay, using BSA as a standard.
2.3 Assay for ARAT and LRAT Activity (to Identify B1)
The procedure below was a modification of a method described in the literature (2). The following buffer was prepared and stored at 4° C.: 0.1M PO4 5 mM dithiothreitol, pH 7.0 (PO4/DTT). On the day of the assay, 2 mg BSA per mL of buffer was added to give a PO4/DTT/BSA working buffer. 1 mM retinol substrate was prepared in acetonitrile and stored in amber bottles under nitrogen gas at −20° C. Solutions of 4 mM Palmitoyl-CoA in working buffer (stored in aliquots) and 4 mM dilauroyl phosphatidyl choline in ethanol were prepared and stored at −20° C. Inhibitors were prepared as 10 mM stock solutions in H2O, ethanol, acetonitrile or DMSO. The quench solution was prepared using pure ethanol containing 50 μg/mL butylated hydroxytoluene (BHT), and a hexane solution containing 50 μg/mL BHT was used for the extractions.
The mixture was incubated for 5 min. at 37° C. to equilibrate the reaction temperature and then 5 μL 1 mM retinol was added. The vials were capped, vortexed for 5 seconds and incubated for 30-90 minutes at 37° C. The reaction was quenched by adding 0.5 mL ethanol/BHT. The retinoids were extracted by adding 3 mL hexane/BHT, vortexing the tubes for several seconds several times and centrifuging the tubes at low speed for 5 min. to quickly separate the layers. The upper hexane layer was removed into a clean vial, and the aqueous layer re-extracted with another 3 mL hexane/BHT, as described above. The hexane layers were combined, and the hexane evaporated by drying at 37° C. under a stream of nitrogen gas on a heated aluminum block. The dried residue was stored at −20° C. until HPLC analysis. The amount of retinyl palmitate and retinyl laurate was quantitated for ARAT and LRAT activity, respectively, by integration of the HPLC signal as described below.
Note that the incubation solution contains 40 μM acyl donor, 100 μM or less inhibitor, 10 uM retinol, approximately 30 μg/mL microsomal protein, and nearly 0.17 PO4/pH 7/5 mM DTT/2 mg/mL BSA. All steps subsequent to the addition of retinol were done in the dark or under amber lights.
Samples for retinoid quantitation by HPLC were prepared by dissolving the residue in each vial with 100 μL of methanol. […] Aliquots of 60 μL were injected immediately and analysed for retinoid content.
Two HPLC protocols were used for retinoid analysis.
These protocols were selected based on their ability to clearly resolve pertinent retinoid acids, alcohols, aldehydes, and/or esters for each assay and relative quickness of separation.

Turning to `CCCCCC(N)=O` [Hexanoamide], in the test on ARAT, the “% Inhibition ARAT (100 jm)” value amounted to 20%.

As to `CCCCC/C=C/C/C=C/CCCCCCCC(=O)NC(C)c1ccccc1` (stereo not drawn) [Melinamide, reference compound], the “% Inhibition ARAT (100 jm)” value with ARAT was found to be 64% +/− 15.

In the case of `CC12CCC(C1)C(C)(C)C2O` (stereo not drawn) [Fenchyl Alcohol], in the test on ARAT, the “% Inhibition ARAT (100 jm)” value is 12%.

Take `CCCCCCCCCCCC(=O)N(C)CC(=O)O` [Lauroyl Sarcosine]: in the test on ARAT, the “% Inhibition ARAT (100 jm)” value is 20%.

Take `CC(=O)c1cc2c(cc1C)C(C)(C)C(C)CC2(C)C` (stereo not drawn) [Tonalid]: the “% Inhibition ARAT (100 jm)” value in the test with ARAT was 50%.

Regarding `CCCCC/C=C\C/C=C\CCCCCCCC(=O)NCCCN(C)C` [Linoleamidopropyl Dimethylamine], the “% Inhibition ARAT (100 jm)” value in the test with ARAT is on record as 69% +/− 18.

Consider `CCCCCCCCCCCCCC(=O)N(C)CC(=O)O` [Myristoyl Sarcosine], for which the “% Inhibition ARAT (100 jm)” value with ARAT was 41% +/− 14.

Consider `CC(C)=CCCC(C)CCO` (stereo not drawn) [Citronellol], for which the “% Inhibition ARAT (100 jm)” value with ARAT is listed as 30%.

`CC(C)=CCC/C(C)=C/CC/C(C)=C/CC/C(C)=C/CO` [Geranyl Geraniol]: the “% Inhibition ARAT (10 jm)” value in the test on ARAT (compound 10 jm) was determined as 38% +/− 12. In the test on ARAT, the “% Inhibition ARAT (100 jm)” value is listed as 81% +/− 6.

In the case of `CC(=O)c1cc2c(cc1C)C(C)(C)[C@H](C)[C@H]2C(C)C` [Traseolide], in the test with ARAT, the “% Inhibition ARAT (100 jm)” value is listed as 41%.

Turning to `CC(C)=CCCC(C)=CC=O` [Citral], the “% Inhibition ARAT (100 jm)” value with ARAT is on record as 20%.

Coco Trimethyl-ammonium Cl—: in the test with ARAT, the “% Inhibition ARAT (100 jm)” value turned out to be 27%.

As for `CC1=C(/C=C/C(C)=C/C=C/C(C)=C/CO)C(C)(C)CCC1` [retinol, All-trans-retinol, reference compound], the “inhibition of transglutaminase production (maximal)” value in test [1] (1 μM retinoid, day 2, keratinocytes 4000 cells/well) is listed as 55%.

In the case of `CCCCC/C=C\C/C=C\C/C=C\C/C=C\CCCC(=O)[O-].[Na+]` [Arachidonic Acid (Na+ salt)], in test [1] (setting [2]), the “TG as % C, Compd 3” value amounted to 78 % C.

A word on the IC20: it is the concentration needed for an effect of 20%. In the case of `CC(C)CCCCCCCCCCCCCCC(=O)O` [Isostearic Acid], the “TG as % C Compd 2” value in test [1] (Compound 2 alone, in the presence of 10^-7M retinol) is given as 87 % C; in test [1] (compound 2 alone, with retinol) it was 146 % C. Also, the IC20 in test [1] (setting [3]) is 62300 nM.

Turning to `O=c1c2cccc3cccc(c32)c2nc3ccccc3n12` [7H-Benzimidazo[2,1-a]Benz[de]-isoquinolin-7-one], in test [1] (setting [2]), the “TG as % C, Compd 3” value is 94 % C. For the same compound, the 20% effect concentration (IC20) in test [1] (setting [3]) amounted to 469 nM.

`O=C1CCc2ccccc2N1` [3,4-dihydro-2 quinolinone, 3,4,-Dihydro-2(1H)-quinolinone(Hydrocarbostyril)]: the “TG as % C Compd 2” value in test [1] (compound 2 alone, with retinol) was found to be 102 % C.

As to `CCCCCCCC(=O)OC[C@H](COP(=O)(O)OCCN)OC(=O)CCCCCCC` [1,2-dioctanoyl-sn-glycero-3-phosphoethanolamide], the “TG as % C Compd 1” value in test [1] (Compound 1 alone, in the presence of 10^-7M retinol) was 81 % C; in test [1] (compound 1 alone, with retinol), 123 % C and 95 % C and 106 % C. Further, the “Tgase levels (Mean)” value in test [1] (booster 1.6E−04 Molar) is given as 58.1 % of control; in test [1] (booster 1.78E−05 Molar), 104 % of control; in test [1] (booster 1.79E−9 Molar), 82 % of control; in test [1] (booster 1.98E−06 Molar), 110 % of control; in test [1] (booster 2.19E−09 Molar), 88.6 % of control; in test [1] (booster 4.39E−08 Molar) it was 127.3 % of control. For the same compound, the “Tgase levels (Mean)” value is reported as 95.4 % of control in test [1] (booster 5.33E−05 Molar), 129 % of control in test [1] (booster 5.93E−06 Molar), 92.8 % of control in test [1] (booster 6.58E−07 Molar) and 119 % of control in test [1] (booster 8.78E−09 Molar).

For `CCCCCCCCCCCC1=NCCN1CCO` [Lauryl Hydroxyethylimidazoline], the IC50 was found to be 467 nM in test [1] (B5 table, with 10^−7 M retinol, read-out: Overall TG (IC 50)) and 467 nM in test [1] (Tgase inhibition, compound tested individually in the presence of 10^-7 M retinol, read-out: IC50). Further, the “TG as % C, Compd 3” value in test [1] (setting [2]) is reported as 52 % C. Besides, the IC20 in test [1] (setting [3]) is 269 nM. For the same compound, the “TG as % C Compd 2” value in test [1] (compound 2 alone, with retinol) is 73 % C; in test [1] (compound 2 alone, with retinol, listed as Lauryl hydorxyimidazoline) it was 106 % C; in test [1] (compound 2 alone, with retinol, listed as Lauryl hydroxyethylimiazoline) it was 98 % C.

As to Dimethyl imidazoline, the “TG as % C Compd 2” value in test [1] (compound 2 alone, with retinol) is listed as 112 % C.

Regarding `CCN(CC)CC(=O)Nc1c(C)cccc1C` [Lidocaine, reference compound], the “% Inhibition ARAT (100 jm)” value in the test on ARAT was 12%.
